Changes are numbered by the printed parent chain. Names and notes keep the numbering of the source.
How the values were obtained:
[1] = biological target: T1, wild type KDM4A (Homo sapiens, UniProt O75164); assay: Coupled fluorescence (FDH/NADH) assay, kinetic parameters with 2OG; type: biochemical; details: H3K9me3 demethylation, saturating peptide, 2OG as cofactor
T1 construct: human KDM4A-jmjC domain (catalytic domain of KDM4A); 6xHis (N); host or cells: E. coli BL21 (DE3)
T1 sequence (O75164 142-308 limits assumed): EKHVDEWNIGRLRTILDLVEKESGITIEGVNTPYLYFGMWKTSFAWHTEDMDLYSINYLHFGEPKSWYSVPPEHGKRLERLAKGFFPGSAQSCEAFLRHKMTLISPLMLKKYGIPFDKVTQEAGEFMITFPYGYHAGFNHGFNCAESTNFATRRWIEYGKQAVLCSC

[2] = biological target: T1, wild type KDM4A; assay: MALDI-MS end-point demethylase assay on H3K9me3 peptide; type: biochemical; details: H3K9me3 peptide, 200 µM 2OG, fixed concentration of NOG analogue
Text: (§1) To develop an appropriate inhibitor, we selected N-oxalyl glycine (NOG, 2) scaffold because of its structural similarity with 2OG and the ability to inhibit 2OG-utilizing enzymes including KDMs (Figure 1C).[29]−[31] Substituting −CH2– at C3 of 2OG with −NH– in NOG prevents its oxidative decarboxylation by KDMs, making the inhibitor cofactor-competitive. […] We synthesized a panel of eight NOG analogues (3–10), derived from L-amino acids, carrying varied steric substituents at C4, with the reasoning that a bulky substituent at C4 would selectively fit into the expanded pocket of F185A over wild type KDM4A (Figures 2B and S1–S6, Schemes S1 and S2). The inhibitory effect of each compound was determined based on the extent of enzyme-catalyzed demethylation of a canonical peptide substrate corresponding to the N-terminus of histone 3 carrying trimethylated lysine at position 9 (H3K9me3). […] Such orthogonal inhibition of the engineered demethylase constitutes a powerful chemical probe to study the functions of a specific member of an enzyme family without issues of off-target activity.
(§2) assay (Biorad) kit with BSA concentrations as a standard. […]
8. […]
2 mM L-ascorbic acid with a total assay volume of 10 µL. Fe(II) supplement and L-ascorbic acid
Lastly, the 2OG and peptide were
positive mode and analyzed on Bruker FlexAnalysis software. The percent demethylated peptide
(§3) the multiple demethylation events on the peptide. […]

[3] = biological target: T2, KDM4A-F185A (Homo sapiens, UniProt O75164, F185A); assay: as above; type: biochemical
T2 construct: human KDM4A-jmjC domain (catalytic domain of KDM4A); 6xHis (N); host or cells: E. coli BL21 (DE3)
T2 sequence (O75164 142-308 F185A limits assumed): T1 sequence (O75164 142-308 limits assumed) with F44A
Text: as §1, with “activity. […]” for “activity.”
as §2
8. Demethylase activity of the wild type and mutant KDM4 proteins on peptide substrate To monitor enzymatic activity, a demethylase activity assay was optimized and then observed through MALDI-TOF.7 Each histone demethylase assay sample included either wild type or mutant enzyme (10µM KDM4A, 7.5µM KDM4C, 10µM KDM4D, or 1µM KDM4E), 10 µM peptide, 200 µM 2OG, 50 mM Tris pH 8, […], 0-200µM NOG analogue, and 2 mM L-ascorbic acid with a total assay volume of 10 µL. Fe(II) supplement and L-ascorbic acid […]
Lastly, the 2OG and peptide were […]
positive mode and analyzed on Bruker FlexAnalysis software. The percent demethylated peptide […]
as §3
varying concentrations (0-10 µM). […] The fluorescence intensity was measured with excitation = 340 nm and emission = 490 nm on a TECAN Infinite M1000Pro. […]
The set up and analysis for IC50 of L-Leu NOG against KDM4A F185A enzyme was similar to that described in the coupled fluorescence assay section, but adjusted to function as an end point assay. […]
and varying concentration of compounds (NOGs 6, 9 and 10) and a substrate cocktail (200 µM 2OG and 60 µM H3K9me3 peptide). Different concentrations of NOG 6 were measured at one time point ranging for 1-5 hours. For 9 and 10, the same set-up remained, but enzymatic activity was measured via MALDI-TOF analysis, and relative activity and inhibition was calculated for different NOG concentrations as described above. […]
and analyzed on Bruker FlexAnalysis software. The percent demethylated peptide was calculated by first multiplying the K27me1 peak by 2 and the K27me0 peak by 3 to account for the multiple

[4] = substrate: O=C(O)CCC(=O)C(=O)O; assay: purified protein, by the assay type; details: other: saturating H3K9me3 peptide; pH 8.0; 37.0 °C

With `O=C(O)CCC(=O)C(=O)O` [compound 1, 2-oxoglutarate] the kcat ([1]; listed as 2OG) was 0.26 ± 0.01 min^–1 and the kcat ([1]; listed as 2OG 1) was 0.2562±0.0072 min^–1.

`O=C(O)CNC(=O)C(=O)O` [compound 2, N-oxalyl glycine, reference compound] was tested, and the “inhibition of wild type KDM4A demethylase activity (MALDI-MS)” value [2] was “weakly inhibited” and the “inhibition of F185A mutant demethylase activity (MALDI-MS)” value ([3]; H3K9me3 peptide, 200 µM 2OG, fixed concentration of NOG analogue) was “weakly inhibited”.

For `O=C(O)C(=O)N[C@@H](Cc1ccccc1)C(=O)O` [compound 9, phenylalanine NOG], the IC50 [3] was 28.7 ± 1.3 µM.

In the case of `O=C(O)C(=O)N[C@@H](CC1CCCCC1)C(=O)O` [compound 10, cyclohexyl NOG], the IC50 [3] is reported as 4.7 ± 1.7 µM.

B1: wild type KDM4A (Homo sapiens) (protein)
chain: T1 sequence (O75164 142-308 limits assumed)
Molecule B1 has a Km [4] of 7.52 ± 1.2 µM.

B2: KDM4A-F185A (Homo sapiens; F185A) (protein)
chain: T1 sequence (O75164 142-308 limits assumed) with F44A
B2 gave a Km [4] of 52 ± 11 µM.
